Measurements taken from ChEMBL document CHEMBL3585311, “Computational design and chemometric QSAR modeling of Plasmodium falciparum carbonic anhydrase inhibitors” (Bioorg Med Chem Lett, 2014).

Assay: Inhibition of Plasmodium falciparum recombinant carbonic anhydrase

Row | SMILES | Ki [nM]
1 | Cc1cc(F)c(C)c(NC(=O)NC(=S)Nc2ccc(S(N)(=O)=O)cc2)c1 | 518
2 | CCN(CC)C(=S)SNCc1ccc(S(N)(=O)=O)cc1 | 8390
3 | Cc1cc(C)cc(N(C(=O)Nc2ccccc2S(N)(=O)=O)c2ccccc2)c1 | 4090
4 | COc1ccc2oc(=O)cc(CC(=O)Nc3cccc(S(N)(=O)=O)c3)c2c1 | 4580
5 | CCN(CC)C(=S)SNc1ccc(S(N)(=O)=O)cc1 | 3000
6 | COc1ccc2oc(=O)cc(CC(=O)Nc3ccccc3S(N)(=O)=O)c2c1 | 1440
7 | Cc1ccc(NC(=O)NC(=S)Nc2ccc(S(N)(=O)=O)cc2)s1 | 505
8 | NS(=O)(=O)c1ccc(/N=C/c2ccc(Br)c3ccccc23)cc1 | 4160
9 | NS(=O)(=O)c1ccc(NC(=O)c2ccc(S(N)(=O)=O)cc2)cc1 | 3050
10 | NS(=O)(=O)c1ccc(CNC(=O)N(c2ccccc2)c2ccccc2)cc1 | 6030
11 | Cc1cc(NC(=O)NC(=S)Nc2ccc(S(N)(=O)=O)cc2)c(Cl)c(C)c1Cl | 514
12 | COc1ccc2oc(=O)cc(CC(=O)NNc3ccc(S(N)(=O)=O)cc3)c2c1 | 3510
13 | NS(=O)(=O)c1ccc(NC(=S)NC(=O)Nc2cccc(F)c2)cc1 | 424
14 | NS(=O)(=O)c1ccc(NS(=O)(=O)c2ccc(NC(=O)N(c3ccccc3)c3ccccc3)cc2)cc1 | 16500
15 | NC(=S)Nc1ccc(S(N)(=O)=O)cc1 | 2100
16 | NS(=O)(=O)c1nnc(NC(=S)NC(=O)Nc2ccccc2)s1 | 6730
17 | NS(=O)(=O)c1ccc(NC(=O)Nc2ccc(Cl)c(Cl)c2)cc1 | 5580
18 | COc1ccc2oc(=O)cc(CC(=O)c3cc(C(F)(F)F)c(S(N)(=O)=O)cc3S(N)(=O)=O)c2c1 | 2520
19 | Cc1c(NC(=O)NC(=S)Nc2ccc(S(N)(=O)=O)cc2)cn2ncccc12 | 433
20 | NS(=O)(=O)c1ccccc1NC(=O)N(c1ccccc1)c1ccc(F)cc1 | 2260
21 | NS(=O)(=O)c1nnc(NS(=O)(=O)C(F)(F)C(F)(F)C(F)(F)C(F)(F)C(F)(F)C(F)(F)C(F)(F)C(F)(F)F)s1 | 192
22 | CC(Cl)(Cl)c1ccc(NC(=O)NC(=S)Nc2ccc(S(N)(=O)=O)cc2)cc1 | 452
23 | COc1cc(CC(=O)Nc2ccccc2S(N)(=O)=O)c2ccccc2c1Cl | 4280
24 | NS(=O)(=O)c1ccc(NNC(=O)c2cc3ccccc3oc2=O)cc1 | 4060
25 | NS(=O)(=O)c1ccc(NC(=O)c2cc3ccccc3oc2=O)cc1 | 5820

Row | SMILES | Ki [nM]
26 | COc1ccc2cncc(CC(=O)Nc3ccccc3S(N)(=O)=O)c2c1 | 2660
27 | NS(=O)(=O)c1ccccc1NC(=O)N(c1ccccc1)c1cccc(Cl)c1 | 1650
28 | NS(=O)(=O)c1ccc(Nc2cscn2)cc1 | 237
29 | NS(=O)(=O)c1nnc(NC(=O)c2c(F)c(F)c(F)c(F)c2F)s1 | 3440
30 | NS(=O)(=O)c1ccc(CCNC(=O)c2cc3ccccc3oc2=O)cc1 | 13200
31 | CC(F)(F)Nc1ccc(S(N)(=O)=O)cc1 | 740
32 | NS(=O)(=O)c1ccccc1NS(=O)(=O)c1c(F)c(F)c(F)c(F)c1F | 3060
33 | NS(=O)(=O)c1ccc(Nc2ncc(Cl)s2)cc1 | 164
34 | CC(C)(O)Nc1ccc(S(N)(=O)=O)cc1 | 2220
35 | NS(=O)(=O)c1ccccc1NC(=O)c1cc2ccccc2oc1=O | 18500
36 | NS(=O)(=O)c1nnc(NS(=O)(=O)c2c(F)c(F)c(F)c(F)c2F)s1 | 2580
37 | Cc1cc(Cl)cc(C)c1NC(=O)NC(=S)Nc1ccc(S(N)(=O)=O)cc1 | 596
38 | NS(=O)(=O)c1ccc(CNC(=O)c2cc3ccccc3oc2=O)cc1 | 5050
39 | NS(=O)(=O)c1ccc(NC(=S)NC(=O)Nc2ccc(CC(Cl)Cl)cc2)cc1 | 756
40 | COC(=O)NS(=O)(=O)c1ccc(NC(=S)Nc2ccc(S(N)(=O)=O)cc2)cc1 | 4620
41 | NS(=O)(=O)c1cc(S(N)(=O)=O)c(C(F)(F)F)cc1NC(=O)c1cc2ccccc2oc1=O | 9030
42 | NS(=O)(=O)c1ccccc1NC(=O)N(c1ccccc1)c1ccccc1 | 1990
43 | Cc1ccc(C)c(N(C(=O)Nc2ccccc2S(N)(=O)=O)c2ccccc2)c1F | 3320
44 | NS(=O)(=O)c1ccc(NC(=S)NC(=O)Nc2ccc(Cl)cc2)cc1 | 327
45 | Cn1nc(S(N)(=O)=O)s/c1=N/C(=O)c1c(F)c(F)c(F)c(F)c1F | 6870
46 | NS(=O)(=O)c1ccc(NC(=S)NC(=O)Nc2ccc(Cl)c(Cl)c2)cc1 | 180
47 | CCc1c(Cl)ccc(NC(=O)NC(=S)Nc2ccc(S(N)(=O)=O)cc2)c1Cl | 464
48 | NS(=O)(=O)c1ccc(Nc2ncsc2Cl)cc1 | 164
49 | NS(=O)(=O)c1ccc(Nc2nocc2Cl)cc1 | 164
